This is an account of results in PMC8972196, “A Set of Experimentally Validated Decoys for the Human CC Chemokine Receptor 7 (CCR7) Obtained by Virtual Screening” (Frontiers in Pharmacology, 2022).

The assay deals with T1, human CCR7 (Homo sapiens, UniProt P32248).
T1 construct: expressed in transfected cells
T1 sequence (P32248 25-378): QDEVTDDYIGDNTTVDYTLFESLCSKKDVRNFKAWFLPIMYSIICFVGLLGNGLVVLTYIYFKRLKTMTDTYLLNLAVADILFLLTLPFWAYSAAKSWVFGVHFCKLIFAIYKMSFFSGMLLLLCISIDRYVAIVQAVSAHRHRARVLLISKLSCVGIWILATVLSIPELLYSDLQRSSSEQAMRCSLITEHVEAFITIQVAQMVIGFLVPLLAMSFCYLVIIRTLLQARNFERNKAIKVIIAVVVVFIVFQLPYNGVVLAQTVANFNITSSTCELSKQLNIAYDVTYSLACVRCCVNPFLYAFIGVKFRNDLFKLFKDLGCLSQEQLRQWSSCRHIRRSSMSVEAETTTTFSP
Nature of the assay: CCL19-induced calcium mobilization assay, U87.CD4 cells expressing CCR7. It is filed as cell-based. Put shortly: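 U87.CD4 cells stably expressing human CCR7, CXCR2 or CCR5 were seeded at 20,000 cells/well and incubated overnight at 37°C and 5% CO2. Cells were then incubated for 45 min at room temperature in the dark before calcium responses were recorded. CCR7 responses were induced with CCL19 and CXCR2 responses with CXCL8.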
Background: A change in cytosolic calcium serves as a functional read-out for many receptors and channels.

The mark [1] stands for this setting: CCL19-induced calcium signaling, read-out: IC50 [μM] block CCL19 induced calcium signaling.
Setting [2] is: classification of tested compounds as decoy or active.
[3] abbreviates: CCL19 induced calcium signaling, read-out: IC50 [μM] block CCL19 induced calcium signaling.
[4] abbreviates: classification as decoy or active on CCR7.

Read-outs that look alike come from different tables or passages of the source.

The term IC50 denotes the concentration that inhibits the measured activity by half. Regarding `CN(C)S(=O)(=O)c1ccc(-c2nnc(C(=O)NCc3ccccc3)o2)cc1` [C089, CN(C)S(=O)(=O)c1ccc(-c2nnc(C(=O)NCc3ccccc3)o2)cc1], the IC50 under setting [1] is above 50 µM. The “Decoy – 0 Active – 1” value under setting [2] came to 0.

`CN(C)C(=O)c1cccc(NCC(=O)N(C)C2CCCCC2)c1` [C075, CN(C)C(=O)c1cccc(NCC(=O)N(C)C2CCCCC2)c1]: the IC50 under setting [1] is above 10 µM. Under setting [2], the “Decoy – 0 Active – 1” value amounted to 0.

Regarding `CCOC(=O)CNC(=S)Nc1ncccc1C` [C043, CC1=CC=CN=C1NC(NCC(OCC)=O)=S], the IC50 under setting [1] is above 30 µM. For the same compound, under setting [2], the “Decoy – 0 Active – 1” value amounted to 0.

`NC(=O)c1cc(NCC(=O)NCc2ccco2)ccc1Cl` [C067, NC(=O)c1cc(NCC(=O)NCc2ccco2)ccc1Cl]: the IC50 under setting [1] is above 10 µM. In addition, the “Decoy – 0 Active – 1” value under setting [2] stood at 0.

Regarding `O=C(NCc1ccccn1)c1cn2c(n1)C(=O)N(CC1CC1)CC2` [C095, O=C(NCc1ccccn1)c1cn2c([nH+]1)C(=O)N(CC1CC1)CC2], the IC50 under setting [1] is above 50 µM. Moreover, the “Decoy – 0 Active – 1” value under setting [2] was 0.

`O=C1C[C@H](NC(=O)CCn2cccn2)CN1` [C145, O=C1C[C@H](NC(=O)CCn2cccn2)CN1]: the IC50 under setting [1] was above 50 µM. The “Decoy – 0 Active – 1” value under setting [2] came to 0.

With `Cc1ccc(NC2=NC(=O)SC2=Cc2ccco2)cc1` [C078, Cc1ccc(NC2=[NH+]C(=O)SC2=Cc2ccco2)cc1], under setting [1], the IC50 was above 10 µM. For the same compound, the “Decoy – 0 Active – 1” value under setting [2] is listed as 0.

Turning to `CC1CCCCN1C(=O)CNc1cc(C(=O)N(C)C)ccc1Cl` (stereo not shown) [C074, CC1CCCCN1C(=O)CNc1cc(C(=O)N(C)C)ccc1Cl], the 50% inhibitory concentration (IC50) under setting [1] was above 10 µM. Under setting [2], the “Decoy – 0 Active – 1” value is on record as 0.

`O=C1CC(C(=O)N2CCCC2c2cccs2)CN1c1cccc2ccccc12` (stereo not shown) [C230, O=C1CC(C(=O)N2CCCC2c2cccs2)CN1c1cccc2ccccc12]: the IC50 under setting [3] was above 50 µM. Further, under setting [4], the “Decoy – 0 Active – 1” value came out at 0.

On to `COc1ccc2c(c1)CCCN2C(=O)C1CC(=O)N(c2ccc3c(c2)OCCO3)C1` (stereo not shown) [C218, COc1ccc2c(c1)CCCN2C(=O)C1CC(=O)N(c2ccc3c(c2)OCCO3)C1], for which the IC50 under setting [3] was above 50 µM. The “Decoy – 0 Active – 1” value under setting [4] was 0.

In the case of `Cc1ccn(C)c(=O)c1NC(=O)NC1CCCc2ccc(Cl)cc21` (stereo not shown) [C196, Cc1ccn(C)c(=O)c1NC(=O)NC1CCCc2ccc(Cl)cc21], the IC50 under setting [3] is above 50 µM. Moreover, the “Decoy – 0 Active – 1” value under setting [4] is recorded as 0.

For `CC(Nc1c(NCc2ccc3c(c2)OCO3)c(=O)c1=O)c1ccccc1` (stereo not shown) [C013, CC(Nc1c(NCc2ccc3c(c2)OCO3)c(=O)c1=O)c1ccccc1], the IC50 under setting [1] is above 50 µM. The “Decoy – 0 Active – 1” value under setting [2] is given as 0.

For the compound `CCOC(=O)NC(=S)Nc1cc(C)nc(C)n1` [C046, CC1=NC(NC(NC(OCC)=O)=S)=CC(C)=N1], under setting [1], the IC50 was above 30 µM. Besides, the “Decoy – 0 Active – 1” value under setting [2] stood at 0.

Consider `C[C@@H]1CCN(Cc2ccccc2)C[C@H]1Nc1ccc([N+](=O)[O-])c(C(N)=O)c1` [C117, C[C@@H]1CC[N@H+](Cc2ccccc2)C[C@H]1Nc1ccc([N+](=O)[O-])c(C(N)=O)c1], for which the IC50 under setting [1] was above 50 µM. Further, the “Decoy – 0 Active – 1” value under setting [2] was found to be 0.

As to `Cc1oc2ccccc2c1CNC(=O)N1CCC(C)(CO)CC1` [C167, Cc1oc2ccccc2c1CNC(=O)N1CCC(C)(CO)CC1], the IC50 under setting [3] is above 50 µM. The “Decoy – 0 Active – 1” value under setting [4] was 0.

Regarding `COc1ccc(C(Cc2ccccc2)NC(=O)N2CCC(O)C(F)(F)C2)cc1` (stereo not shown) [C181, COc1ccc(C(Cc2ccccc2)NC(=O)N2CCC(O)C(F)(F)C2)cc1], the IC50 under setting [3] is above 50 µM. Besides, under setting [4], the “Decoy – 0 Active – 1” value came to 0.

As for `CC[C@@H](NS(=O)(=O)NCc1ccccc1)c1cc(C)ccn1` [C137, CC[C@@H](NS(=O)(=O)NCc1ccccc1)c1cc(C)ccn1], under setting [1], the IC50 is above 50 µM. Under setting [2], the “Decoy – 0 Active – 1” value stood at 0.

`FC(F)(F)c1ccccc1NC(=S)Nc1ccc(OCc2ccccc2)cc1` [C035, FC(F)(F)c1ccccc1NC(=S)Nc1ccc(OCc2ccccc2)cc1]: the IC50 under setting [1] was above 30 µM. Besides, under setting [2], the “Decoy – 0 Active – 1” value worked out at 0.

`COc1ccc(C)cc1NC(=S)N1CCN(c2ccccc2O)CC1` [C026, COc1ccc(C)cc1NC(=S)N1CCN(CC1)c1ccccc1O]: under setting [1], the IC50 is above 30 µM. Moreover, the “Decoy – 0 Active – 1” value under setting [2] is recorded as 0.

On to `O=C(Nc1ccc(Cl)cc1Cl)N1CC(O)C(F)C1` (stereo not shown) [C183, O=C(Nc1ccc(Cl)cc1Cl)N1CC(O)C(F)C1], for which the IC50 under setting [3] was above 50 µM. Further, the “Decoy – 0 Active – 1” value under setting [4] came out at 0.

Take `O=C(c1cn2ccccc2n1)N(CCN1CCCC1)Cc1ccc(Cl)c(Cl)c1` [C280, O=C(c1cn2ccccc2n1)N(CCN1CCCC1)Cc1ccc(Cl)c(Cl)c1]: under setting [3], the IC50 was above 50 µM. In addition, the “Decoy – 0 Active – 1” value under setting [4] is recorded as 0.

Turning to `Cc1ccc(S(=O)(=O)NC(C)C(c2ccccc2)N2CCOCC2)cc1` (stereo not shown) [C264, Cc1ccc(cc1)S(=O)(=O)NC(C)C(c2ccccc2)[NH+]3CCOCC3], the IC50 is above 50 µM. The “Decoy – 0 Active – 1” value under setting [4] came out at 0.

As to `FC(F)(F)c1cccc(Cn2cnc(NC(=S)NCCc3ccccc3)n2)c1` [C027, FC(F)(F)c1cccc(Cn2cnc(NC(=S)NCCc3ccccc3)n2)c1], the IC50 under setting [1] was above 30 µM. Further, the “Decoy – 0 Active – 1” value under setting [2] is on record as 0.

As to `CC[C@@H](NC1=NS(=O)(=O)c2ccccc21)C(=O)NOC` [C156, CC[C@@H](NC1=NS(=O)(=O)c2ccccc21)C(=O)NOC], the IC50 under setting [1] was above 50 µM. Besides, under setting [2], the “Decoy – 0 Active – 1” value turned out to be 0.

As to `COc1ccc(S(=O)(=O)Nc2ccccc2C(=O)N2CCOCC2)cc1Br` [C251, COc1ccc(cc1Br)S(=O)(=O)Nc2ccccc2C(=O)N3CCOCC3], under setting [3], the half-maximal inhibitory concentration (IC50) is above 50 µM. Besides, the “Decoy – 0 Active – 1” value under setting [4] stood at 0.

Take `O=C(NCc1cccnc1)c1ccccc1NS(=O)(=O)c1ccc2c(c1)OCCO2` [C239, c1ccc(c(c1)C(=O)NCc2cccnc2)NS(=O)(=O)c3ccc4c(c3)OCCO4]: the IC50 under setting [3] is above 50 µM. Also, the “Decoy – 0 Active – 1” value under setting [4] is given as 0.

On to `O=C(NCc1cccnc1-n1ccnc1)c1cc2ccccc2c(=O)[nH]1` [C215, O=C(NCc1cccnc1-n1ccnc1)c1cc2ccccc2c(=O)[nH]1], for which the IC50 under setting [3] was above 50 µM. The “Decoy – 0 Active – 1” value under setting [4] amounted to 0.

On to `CCN(CC)S(=O)(=O)c1ccc2c(c1)cc(C(=O)NCc1ccc(C)o1)n2C` [C102, CCN(CC)S(=O)(=O)c1ccc2c(c1)cc(C(=O)NCc1ccc(C)o1)n2C], for which the IC50 under setting [1] was above 50 µM. The “Decoy – 0 Active – 1” value under setting [2] was determined as 0.

Consider `Cc1c(C(=O)NCC2CC2)sc2ncnc(NCCc3ccccn3)c12` [C093, Cc1c(C(=O)NCC2CC2)sc2ncnc(NCCc3ccccn3)c12], for which the IC50 under setting [1] is above 50 µM. Besides, the “Decoy – 0 Active – 1” value under setting [2] is on record as 0.

In the case of `O=S1(=O)N=C(NCc2ccco2)c2ccccc21` [C148, O=S1(=O)N=C(NCc2ccco2)c2ccccc21], under setting [1], the IC50 was above 50 µM. Further, the “Decoy – 0 Active – 1” value under setting [2] is given as 0.

For `O=C(CCCc1c[nH]c2ccccc12)N1CCN(C(=O)CCCc2c[nH]c3ccccc23)CC1` [C209, O=C(CCCc1c[nH]c2ccccc12)N1CCN(C(=O)CCCc2c[nH]c3ccccc23)CC1], the half-maximal inhibitory concentration (IC50) under setting [3] is above 50 µM. For the same compound, the “Decoy – 0 Active – 1” value under setting [4] is 0.

As for `CNC(=O)[C@H](NC1=NS(=O)(=O)c2ccccc21)C(C)C` [C157, CNC(=O)[C@H](NC1=NS(=O)(=O)c2ccccc21)C(C)C], the IC50 under setting [1] was above 50 µM. Besides, the “Decoy – 0 Active – 1” value under setting [2] is recorded as 0.

Take `O=C(c1ccnc(N[C@H]2CCCN(Cc3cccnc3)C2)c1)N1CCCC1` [C087, O=C(c1ccnc(N[C@H]2CCC[N@@H+](Cc3cccnc3)C2)c1)N1CCCC1]: the IC50 under setting [1] is above 50 µM. Moreover, the “Decoy – 0 Active – 1” value under setting [2] was 0.

For `CN(C)C(=O)c1cccc(N[C@H]2CCCN(Cc3cccc(O)c3)C2)n1` [C111, CN(C)C(=O)c1cccc(N[C@H]2CCC[N@H+](Cc3cccc(O)c3)C2)n1], under setting [1], the IC50 is above 50 µM. In addition, the “Decoy – 0 Active – 1” value under setting [2] is on record as 0.

`Cc1cccc(-c2cccc(C(=O)N3CC(O)CC3C(=O)O)c2)c1` (stereo not shown) [C187, Cc1cccc(-c2cccc(C(=O)N3CC(O)CC3C(=O)[O-])c2)c1]: under setting [3], the half-inhibitory concentration (IC50) was above 50 µM. For the same compound, the “Decoy – 0 Active – 1” value under setting [4] came to 0.

For the compound `O=c1c(NCC2COc3ccccc3O2)c(N2CCSCC2)c1=O` (stereo not shown) [C003, O=c1c(NCC2COc3ccccc3O2)c(N2CCSCC2)c1=O], the IC50 under setting [1] was above 50 µM. The “Decoy – 0 Active – 1” value under setting [2] is 0.

Regarding `Cc1cc(NCCn2cccn2)c2ccc(C(F)(F)F)cc2n1` [C162, Cc1cc(NCCn2cccn2)c2ccc(C(F)(F)F)cc2[nH+]1], under setting [3], the IC50 was above 50 µM. Also, the “Decoy – 0 Active – 1” value under setting [4] is listed as 0.

Turning to `CCNC(=O)c1cccc(NC(=O)CN(Cc2ccco2)C2CCCC2)c1` [C063, CCNC(=O)c1cccc(NC(=O)C[NH+](Cc2ccco2)C2CCCC2)c1], the IC50 under setting [1] is above 10 µM. The “Decoy – 0 Active – 1” value under setting [2] worked out at 0.

Take `Cc1ccc(CNC(=O)c2nnc(-c3ccc(S(=O)(=O)N4CCCC4)cc3)o2)o1` [C091, Cc1ccc(CNC(=O)c2nnc(-c3ccc(S(=O)(=O)N4CCCC4)cc3)o2)o1]: under setting [1], the half-maximal inhibitory concentration (IC50) was above 50 µM. Also, the “Decoy – 0 Active – 1” value under setting [2] was determined as 0.

Turning to `O=S(=O)(NC(c1ccccc1)c1ccccn1)c1ccc2c(c1)OCCCO2` (stereo not shown) [C252, c1ccc(cc1)C(c2ccccn2)NS(=O)(=O)c3ccc4c(c3)OCCCO4], the IC50 under setting [3] was above 50 µM. For the same compound, the “Decoy – 0 Active – 1” value under setting [4] is reported as 0.

As to `COCCN(Cc1cccs1)C(=O)N[C@@H](C)c1ccc(C)o1` [C141, COCCN(Cc1cccs1)C(=O)N[C@@H](C)c1ccc(C)o1], the IC50 under setting [1] is above 50 µM. Besides, the “Decoy – 0 Active – 1” value under setting [2] turned out to be 0.
